melting point: 157 to 159 °C
Compound: c1ccc(-c2nn3c(c2-c2ccnc4cc(OCCN5CCOCC5)ccc24)CCCCC3)nc1 [Example 4, 3-[7-(2-Morpholin-4-yl-ethoxy)-quinolin-4-yl]-2-pyridin-2-yl-5,6,7,8-tetrahydro-4H-pyrazolo[1,5-a]azepine]
